Laboratory results taken from patent US9045248B2 (priority 2007, dated 2015).

Target: wild-type cap-binding domain of PB2 (Influenza A virus, UniProt P31345, R389K)
Parameters: species or system Influenza A/Victoria/3/1975(H3N2)

| Compound | Kd [µM] |
| --- | --- |
| Nc1nc2c(ncn2[C@@H]2O[C@H](COP(=O)(O)OP(=O)(O)OP(=O)(O)O)[C@@H](O)[C@H]2O)c(=O)[nH]1 [GTP] | 1020 ± 100 |
| C[n+]1cn([C@@H]2O[C@H](COP(=O)(O)OP(=O)(O)OP(=O)(O)O)[C@@H](O)[C@H]2O)c2nc(N)[nH]c(=O)c21 [m^7GTP, 7-methyl-guanosine triphosphate] | 177 ± 34 |
